The text below walks through data of patent US20050129765A1, “Controlled release of topiramate in liquid dosage forms” (priority 2003, published 2005).

Data set [1] is described as follows: Drug solubility in various carriers. In kind it is physicochemical.
The conditions of data set [2]: cited from earlier work.

`CC1(C)O[C@@H]2[C@@H](CO[C@@]3(COS(N)(=O)=O)OC(C)(C)O[C@@H]23)O1` [topiramate, 2,3:4,5-di-O-isopropylidene-β-D-fructopyranose sulfamate]: the solubility in carrier result in data set [1] (20-30% topiramate in 90/10, 80/20 or 70/30 PEG 400/Cremophor EL) is “completely soluble”; in data set [1] (45% topiramate in 100% of PEG400) it was “completely soluble”. Further, the “solubility (qualitative)” value in data set [2] (alkaline solutions containing sodium hydroxide or sodium phosphate, acetone, dimethylsulfoxide and ethanol) is recorded as “soluble”. The solubility in water result in data set [2] (in water) is recorded as “about 9.8 mg/ml”.
